Laboratory results taken from patent US20150064172A1, “METHODS OF TREATING A DISEASE OR DISORDER ASSOCIATED WITH BRUTON'S TYROSINE KINASE” (Celgene Avilomics Research, Inc., priority 2013, published 2015).
Like-named read-outs stand apart in the source and are kept apart here.

Assays:
[1] = test system: CLL; assay: Compound 1 besylate monotherapy in patients with CLL; format: in vivo
[2] = Solubility; format: physicochemical
[3] = Environmental stability (heat, acid, base); format: physicochemical
[4] = test system: relapsed/refractory CLL; conditions: cited from earlier work
[5] = monotherapy, as of Sep. 11, 2012
[6] = 25 mg for 21 days of every 28-day cycle

SMILES: C=CC(=O)Nc1cccc(Nc2nc(Nc3ccc(OCCOC)cc3)ncc2F)c1.O=S(=O)(O)c1ccccc1 [Compound 1 besylate, N-(3-(5-fluoro-2-(4-(2-methoxyethoxyl)phenylamino)pyrimidin-4-ylamino)phenyl)acrylamide benzenesulfonic acid salt]
- patients who experienced early increases in absolute lymphocyte counts (ALC) [1, 5]: 28 of 33
- patients who experienced reductions in lymph node size [1, 5]: 15 of 23
- patients with CLL who experienced stable disease and continue on treatment [1, 5]: 35 out of 43
- solubility ([2]; ethanol, organic solvent or mixture, read-out: solubility in ethanol): ~10 mg/mL
- solubility ([2]; water, read-out: solubility in water): ~0.16 mg/mL
- environmental instabilities (i.e. heat, acid, base) [3]: no environmental instabilities

SMILES: C=CC(=O)Nc1cccc(Nc2nc(Nc3ccc(OCCOC)cc3)ncc2F)c1 [Compound 1, N-(3-(5-fluoro-2-(4-(2-methoxyethoxyl)phenylamino)pyrimidin-4-ylamino)phenyl)acrylamide]
- maximum tolerated dose (MTD) ([1]; single agent): has not yet been reached

SMILES: Nc1cccc2c1CN(C1CCC(=O)NC1=O)C2=O (centres unmarked) [lenalidomide, 3-(4-amino-1-oxo-1,3-dihydro-2H-isoindol-2-yl)piperidine-2,6-dione]
- Complete Response [CR] [4, 6]: 18%
- Partial Response [PR] [4, 6]: 36%
- median progression-free survival (PFS) time [4, 6]: 19.4 months
- median time to best response [4, 6]: 5.9 months
- overall response [4, 6]: 53%
- Clinical responses (CR or PR) ([4]; subjects refractory to fludarabine): 30%
- Clinical responses (CR or PR) ([4]; subjects with del (11)(q23) and/or del (17)(p13.1) adverse cytogenetics): 47%
